# Assay results from PubChem BioAssay AID2060899 (Molecular Pharmacology Branch, DTP, NCI, 2025).
# System: 565726-208-R1-J5-PDC complex spheroids, growth inhibition
# Assay: Anticancer human tumor 565726-208-R1-J5-PDC patient-derived pancreatic adenocarcinoma cell line growth inhibition [RAS]
# Details: for IC50: curve of first compound; for viability, T/C: stronger effect = lower value
# Text: RAS pathway inhibitors in Combinations in Complex Spheroids
# A high-throughput screen of multi-cell type tumor spheroids was designed to identify active combinations of RAS pathway inhibitors and targeted small molecules. Complex spheroids include a stromal component modeled by human endothelial cells (HUVEC) and fibroblasts modeled by human mesenchymal stem cells (MSCs). The concentration ranges selected for each drug and investigational agent were based upon clinically achievable concentrations if the clinical Cmax of the agent was known.
# Compounds. The drugs and investigational agents: abemaciclib (NSC768073), cobimetinib (NSC768068), divarasib (GDC6063, NSC841802), docetaxel (NSC628503), GDC-1971 (RLY-1971, NSC841576), gemcitabine (NSC613327), inavolisib (NSC800729), ipatasertib (NSC767898), KB-0742 (NSC834161), MRTX-1133 (NSC836407), osimertinib (NSC779217), RMC-4630 (NSC839698), RMC-6236 (NSC851965), RMC-6291 (NSC852671), Ro-3306 (NSC812927), sapanisertib (NSC764658), SN-38 (NSC673596), staurosporine (NSC755774), SY5609 (NSC837396), and tovorafenib (DAY101, NSC766906), were obtained from the National Cancer Institute (NCI) Developmental Therapeutics Program Chemical Repository. The FDA-approved anticancer drug set is available from the NCI Developmental Therapeutics Program. […] The stock solutions were prepared in dimethyl sulfoxide (DMSO, Sigma-Aldrich, St. Louis, MO, cat. D2650) at 800-fold the tested concentration and stored at -70 degrees C prior to their use. All drugs and investigational agents were tested over a range starting from a high concentration at or near the clinical Cmax and decreasing in half-log increments. If the clinical Cmax for an agent had not been determined, the highest concentration tested was 10 microM.
# Cell Culture. All cells were maintained in an incubator at 37 degrees C and 5% CO2 with 95% humidity. The PDC lines were cultured according to standard operating procedures established by the NCI PDMR. All PDCs were thawed and cultured in Matrigel-coated flasks prepared with a working solution of 1X Ham's F-12 nutrient mix, without supplementation (Invitrogen, Waltham, MA, cat. 11765054), 100 U/mL penicillin-streptomycin (Invitrogen, cat. 15140122), and 2.5% Matrigel (Corning Inc., Corning, NY, cat. 354248) for the first three passages. The 362531-283-R-J2-PDC and 782815-120-R-J1-PDC lines were cultured in 6C/Colon 1B media, which includes advanced DMEM/F-12 (Thermo Fisher Scientific, cat. 12634028), 10 mM HEPES (Thermo Fisher Scientific, cat. 15630080), 1X GlutaMAX supplement (Thermo Fisher Scientific, cat. 35050061), 0.1 mg/mL primocin (InvivoGen, San Diego, CA, cat. ant-pm-2), 10% defined fetal bovine serum, heat inactivated (HyClone Laboratories Inc., Logan, UT, cat. SH30070.03HI), 50% L-WRN conditioned media (ATCC, cat. CRL-3276), 1.25 mM N-Acetyl-L-cysteine (Sigma-Aldrich, cat. A9165), 10 mM nicotinamide (Sigma-Aldrich, cat. N0636), 1X B-27 supplement (Thermo Fisher Scientific, cat. 17504044), 1X N-2 supplement (Thermo Fisher Scientific, cat. 17502048), 50 ng/mL human EGF (Thermo Fisher Scientific, cat. PHG0311), and 10 microM Y-27632 dihydrochloride (Tocris Bioscience, cat. 1254). The K12877-001-R-J1-PDC line was cultured in 6I media, which includes all 6C/Colon 1B media plus 10 ng/mL human FGF-10 (PeproTech, cat. 100-26), 1 ng/mL human FGF-2 (PeproTech, cat. 100-18B), 1 µM prostaglandin E2 (Tocris Bioscience, cat. 2296), […] hydrocortisone (Sigma-Aldrich, cat. H4001), and […] bovine insulin (Sigma-Aldrich, cat. I6634). The K86415-001-R-J1-PDC line was cultured in 6D media, which includes all 6C/Colon 1B media components minus the L-WRN conditioned media. The 485176-168-R4-J1-PDC was cultured in PANC media, which includes all 6C/Colon 1B media plus 100 ng/mL human FGF-10 (PeproTech, cat. 100-26), 500 nM SB-431542 (Selleckchem, cat. S1067), and 10 nM gastrin (Tocris Bioscience, cat. 3006). […]
# [1] = second compound 0.0316 µM, first compound 0.0316 µM
# [2] = second compound 0.0316 µM, first compound 0.1 µM
# [3] = second compound 0.0316 µM, first compound 0.316 µM
# [4] = second compound 0.0316 µM, first compound 1 µM
# [5] = second compound 0.0316 µM, first compound 3.16 µM
# [6] = second compound 0.0316 µM, first compound 10 µM
# [7] = second compound 0.1 µM, first compound 0.0316 µM
# [8] = second compound 0.1 µM, first compound 0.1 µM
# [9] = second compound 0.1 µM, first compound 0.316 µM
# [10] = second compound 0.1 µM, first compound 1 µM
# [11] = second compound 0.1 µM, first compound 3.16 µM
# [12] = second compound 0.1 µM, first compound 10 µM
# [13] = second compound 0.316 µM, first compound 0.0316 µM
# [14] = second compound 0.316 µM, first compound 0.1 µM
# [15] = second compound 0.316 µM, first compound 0.316 µM
# [16] = second compound 0.316 µM, first compound 1 µM
# [17] = second compound 0.316 µM, first compound 3.16 µM
# [18] = second compound 0.316 µM, first compound 10 µM
# [19] = second compound 1 µM, first compound 0.0316 µM
# [20] = second compound 1 µM, first compound 0.1 µM
# [21] = second compound 1 µM, first compound 0.316 µM
# [22] = second compound 1 µM, first compound 1 µM
# [23] = second compound 1 µM, first compound 3.16 µM
# [24] = second compound 1 µM, first compound 10 µM
# [25] = second compound 3.16 µM, first compound 0.0316 µM
# [26] = second compound 3.16 µM, first compound 0.1 µM
# [27] = second compound 3.16 µM, first compound 0.316 µM
# [28] = second compound 3.16 µM, first compound 1 µM
# [29] = second compound 3.16 µM, first compound 3.16 µM
# [30] = second compound 3.16 µM, first compound 10 µM
# [31] = second compound 10 µM, first compound 0.0316 µM
# [32] = second compound 10 µM, first compound 0.1 µM
# [33] = second compound 10 µM, first compound 0.316 µM
# [34] = second compound 10 µM, first compound 1 µM
# [35] = second compound 10 µM, first compound 3.16 µM
# [36] = second compound 10 µM, first compound 10 µM
# 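Also: spheroids exposed to compounds for seven days before readout.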
# 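For viability, T/C in this document: 100% = DMSO vehicle control viability.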
compound,measurement,setting,value
CC(C)NCC(C(=O)N1CCN(c2ncnc3c2C(C)CC3O)CC1)c1ccc(Cl)cc1 (stereo unspecified) + C#Cc1c(F)ccc2cc(O)cc(-c3ncc4c(N5CC6CCC(C5)N6)nc(OCC56CCCN5CC(F)C6)nc4c3F)c12,IC50,second compound 0.0316 µM,> 10 µM
same,IC50,second compound 0.1 µM,> 10 µM
same,IC50,second compound 0.316 µM,> 10 µM
same,IC50,second compound 1 µM,> 10 µM
same,IC50,second compound 3.16 µM,0.473 µM
same,IC50,second compound 10 µM,1.21 µM
same,"viability, T/C",[1],85.7%
same,"viability, T/C",[2],129%
same,"viability, T/C",[3],96%
same,"viability, T/C",[4],76%
same,"viability, T/C",[5],80.2%
same,"viability, T/C",[6],91.4%
same,"viability, T/C",[7],108%
same,"viability, T/C",[8],114%
same,"viability, T/C",[9],80.3%
same,"viability, T/C",[10],77.3%
same,"viability, T/C",[11],88%
same,"viability, T/C",[12],86%
same,"viability, T/C",[13],104%
same,"viability, T/C",[14],117%
same,"viability, T/C",[15],78.1%
same,"viability, T/C",[16],84.9%
same,"viability, T/C",[17],71.9%
same,"viability, T/C",[18],80.5%
same,"viability, T/C",[19],109%
same,"viability, T/C",[20],125%
same,"viability, T/C",[21],76.5%
same,"viability, T/C",[22],59.5%
same,"viability, T/C",[23],63.4%
same,"viability, T/C",[24],52.5%
same,"viability, T/C",[25],101%
same,"viability, T/C",[26],83.8%
same,"viability, T/C",[27],50.7%
same,"viability, T/C",[28],48.4%
same,"viability, T/C",[29],38.5%
same,"viability, T/C",[30],34.7%
same,"viability, T/C",[31],67.8%
same,"viability, T/C",[32],76.6%
same,"viability, T/C",[33],57.6%
same,"viability, T/C",[34],47.1%
same,"viability, T/C",[35],44.5%
same,"viability, T/C",[36],21.1%
CC(C)n1nc(-c2ccc3oc(N)nc3c2)c2c(N)ncnc21 + C#Cc1c(F)ccc2cc(O)cc(-c3ncc4c(N5CC6CCC(C5)N6)nc(OCC56CCCN5CC(F)C6)nc4c3F)c12,IC50,second compound 0.0316 µM,> 0.1 µM
same,IC50,second compound 0.1 µM,> 0.1 µM
same,IC50,second compound 0.316 µM,> 0.1 µM
same,IC50,second compound 1 µM,0.0144 µM
same,IC50,second compound 3.16 µM,0.00506 µM
same,IC50,second compound 10 µM,0.00463 µM
same,"viability, T/C","second compound 0.0316 µM, first compound 0.000316 µM",108%
same,"viability, T/C","second compound 0.0316 µM, first compound 0.001 µM",156%
same,"viability, T/C","second compound 0.0316 µM, first compound 0.00316 µM",87.2%
same,"viability, T/C","second compound 0.0316 µM, first compound 0.01 µM",68.4%
same,"viability, T/C",[1],63.7%
same,"viability, T/C",[2],49.2%
same,"viability, T/C","second compound 0.1 µM, first compound 0.000316 µM",123%
same,"viability, T/C","second compound 0.1 µM, first compound 0.001 µM",135%
same,"viability, T/C","second compound 0.1 µM, first compound 0.00316 µM",73.8%
same,"viability, T/C","second compound 0.1 µM, first compound 0.01 µM",72.5%
same,"viability, T/C",[7],59.7%
same,"viability, T/C",[8],51%
same,"viability, T/C","second compound 0.316 µM, first compound 0.000316 µM",123%
same,"viability, T/C","second compound 0.316 µM, first compound 0.001 µM",149%
same,"viability, T/C","second compound 0.316 µM, first compound 0.00316 µM",83.5%
same,"viability, T/C","second compound 0.316 µM, first compound 0.01 µM",59.8%
same,"viability, T/C",[13],50.6%
same,"viability, T/C",[14],42.8%
same,"viability, T/C","second compound 1 µM, first compound 0.000316 µM",126%
same,"viability, T/C","second compound 1 µM, first compound 0.001 µM",115%
same,"viability, T/C","second compound 1 µM, first compound 0.00316 µM",68.3%
same,"viability, T/C","second compound 1 µM, first compound 0.01 µM",62.4%
same,"viability, T/C",[19],41.7%
same,"viability, T/C",[20],40%
same,"viability, T/C","second compound 3.16 µM, first compound 0.000316 µM",111%
same,"viability, T/C","second compound 3.16 µM, first compound 0.001 µM",107%
same,"viability, T/C","second compound 3.16 µM, first compound 0.00316 µM",56.5%
same,"viability, T/C","second compound 3.16 µM, first compound 0.01 µM",47.7%
same,"viability, T/C",[25],32.9%
same,"viability, T/C",[26],30.6%
same,"viability, T/C","second compound 10 µM, first compound 0.000316 µM",96.9%
same,"viability, T/C","second compound 10 µM, first compound 0.001 µM",80.5%
same,"viability, T/C","second compound 10 µM, first compound 0.00316 µM",56.4%
same,"viability, T/C","second compound 10 µM, first compound 0.01 µM",36%
same,"viability, T/C",[31],25.6%
same,"viability, T/C",[32],18.4%
C[C@@H](NC(=O)c1ncnc(N)c1Cl)c1ncc(C(=O)Nc2cc(C(F)(F)F)c(Cl)cn2)s1 + C#Cc1c(F)ccc2cc(O)cc(-c3ncc4c(N5CC6CCC(C5)N6)nc(OCC56CCCN5CC(F)C6)nc4c3F)c12,IC50,second compound 0.0316 µM,> 10 µM
same,IC50,second compound 0.1 µM,> 10 µM
same,IC50,second compound 0.316 µM,> 10 µM
same,IC50,second compound 1 µM,> 10 µM
same,IC50,second compound 3.16 µM,> 10 µM
same,IC50,second compound 10 µM,> 10 µM
same,"viability, T/C",[1],114%
same,"viability, T/C",[2],167%
same,"viability, T/C",[3],121%
same,"viability, T/C",[4],102%
same,"viability, T/C",[5],135%
same,"viability, T/C",[6],129%
same,"viability, T/C",[7],122%
same,"viability, T/C",[8],166%
same,"viability, T/C",[9],107%
same,"viability, T/C",[10],108%
same,"viability, T/C",[11],116%
same,"viability, T/C",[12],127%
same,"viability, T/C",[13],150%
same,"viability, T/C",[14],147%
same,"viability, T/C",[15],94.9%
same,"viability, T/C",[16],110%
same,"viability, T/C",[17],95.8%
same,"viability, T/C",[18],112%
same,"viability, T/C",[19],134%
same,"viability, T/C",[20],135%
same,"viability, T/C",[21],92.8%
same,"viability, T/C",[22],89.6%
same,"viability, T/C",[23],107%
same,"viability, T/C",[24],105%
same,"viability, T/C",[25],110%
same,"viability, T/C",[26],123%
same,"viability, T/C",[27],72.8%
same,"viability, T/C",[28],68.3%
same,"viability, T/C",[29],65.4%
same,"viability, T/C",[30],102%
same,"viability, T/C",[31],100%
same,"viability, T/C",[32],102%
same,"viability, T/C",[33],68.4%
same,"viability, T/C",[34],64.8%
same,"viability, T/C",[35],72.2%
same,"viability, T/C",[36],72.8%
